Laboratory results reported in article PMC4684994 (Journal of immunology (Baltimore, Md. : 1950), 2015).

How the values were obtained:
[1] = target: T1, TRPV4 (transient receptor potential vanilloid 4) (Mus musculus, UniProt Q9EPK8); test: Calcium influx; assay type: cell-based
[2] = target: T1, TRPV4 (transient receptor potential vanilloid 4); test: Inhibition of GSK1016790A-induced calcium influx; assay type: cell-based

T1 sequence (Q9EPK8 whole entry): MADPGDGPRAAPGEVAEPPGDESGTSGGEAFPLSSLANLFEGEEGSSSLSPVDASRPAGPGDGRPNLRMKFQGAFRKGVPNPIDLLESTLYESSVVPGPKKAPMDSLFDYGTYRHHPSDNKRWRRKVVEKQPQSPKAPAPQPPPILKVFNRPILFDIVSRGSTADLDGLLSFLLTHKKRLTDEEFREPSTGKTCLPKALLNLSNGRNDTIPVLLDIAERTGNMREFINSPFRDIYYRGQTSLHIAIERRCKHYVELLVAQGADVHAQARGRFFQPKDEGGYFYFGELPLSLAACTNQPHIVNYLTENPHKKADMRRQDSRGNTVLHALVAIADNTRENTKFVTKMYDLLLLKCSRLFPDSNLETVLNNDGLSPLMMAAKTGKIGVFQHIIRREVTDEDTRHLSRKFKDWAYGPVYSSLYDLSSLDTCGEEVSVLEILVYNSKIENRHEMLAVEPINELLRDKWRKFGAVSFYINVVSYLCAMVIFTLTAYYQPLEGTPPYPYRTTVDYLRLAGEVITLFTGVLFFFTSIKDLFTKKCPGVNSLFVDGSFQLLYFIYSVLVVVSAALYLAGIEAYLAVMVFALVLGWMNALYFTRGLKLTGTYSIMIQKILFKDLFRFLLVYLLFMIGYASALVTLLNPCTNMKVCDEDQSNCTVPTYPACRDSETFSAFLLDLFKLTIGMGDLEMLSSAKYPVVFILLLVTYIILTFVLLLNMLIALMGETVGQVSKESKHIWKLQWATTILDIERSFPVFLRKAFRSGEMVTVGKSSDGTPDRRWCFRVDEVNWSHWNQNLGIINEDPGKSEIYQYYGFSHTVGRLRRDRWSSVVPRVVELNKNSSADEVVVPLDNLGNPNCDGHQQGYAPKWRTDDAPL

| Compound | EC50 [1] [µM] | IC50 [2] [µM] |
| --- | --- | --- |
| CC(C)C[C@H](NC(=O)c1cc2ccccc2s1)C(=O)N1CCN(C(=O)[C@H](CO)NS(=O)(=O)c2ccc(Cl)cc2Cl)CC1 [GSK, GSK1016790A] | 0.05 |  |
| Cc1c(C(=O)Nc2cccc(C(F)(F)F)c2)cc(-c2ccccc2)n1CCCN1CCOCC1 [HC, HC067047] |  | 7 |
